Here are results for three molecules from ChEMBL document CHEMBL4145634, “Discovery of Janus Kinase 2 (JAK2) and Histone Deacetylase (HDAC) Dual Inhibitors as a Novel Strategy for the Combinational Treatment of Leukemia and Invasive Fungal Infections” (J Med Chem, 2018).

The subject of one data set is Rattus norvegicus. Briefly: Clearance in Sprague-Dawley rat at 10 mg/kg, ip by LC-MS/MS analysis. The settings on record: in vivo. In kind it is ADME, organism-based.
Data set [1] in a line: Tmax in Sprague-Dawley rat at 10 mg/kg, ip by LC-MS/MS analysis. In kind it is ADME, organism-based. The conditions noted are these: in vivo.
Data set [2] can be described thus: AUC (0 to infinity) in Sprague-Dawley rat at 10 mg/kg, ip by LC-MS/MS analysis. In kind it is ADME, organism-based. On the set-up: dose 10 mg/kg, route intraperitoneal, time infinity. The conditions noted are these: in vivo.
Data set [3] in a line: Half life in Sprague-Dawley rat at 10 mg/kg, ip by LC-MS/MS analysis. The settings on record: in vivo. In kind it is ADME, organism-based.
Data set [4] has as its system HEL. Briefly: Antitumor activity in human HEL cells xenografted in SCID mouse assessed as increase in mouse survival at 10 mg/kg, ip qd measured on day 32. The conditions noted are these: 768 h. It counts as functional. In general terms: A xenograft is tissue or cells of one species grown in another, often human tumour cells in immunodeficient mice.
The nature of data set [5]: Cmax in Sprague-Dawley rat at 10 mg/kg, ip by LC-MS/MS analysis. In kind it is ADME, organism-based. On the set-up: dose 10 mg/kg, route intraperitoneal. The settings on record: in vivo.
Data set [6] has as its system HEL. Briefly: Cell cycle arrest in human HEL cells assessed as accumulation at S phase at 1 uM after 48 hrs propidium iodide staining based flow cytometry relative to control. It counts as functional.
The test system of data set [7] is HEL. Briefly: Cell cycle arrest in human HEL cells assessed as accumulation at S phase at 10 uM after 48 hrs propidium iodide staining based flow cytometry relative to control. In kind it is functional.
The test system of data set [8] is HEL. The data set is described as follows: Antitumor activity against human HEL cells xenografted in BALB/C nude mouse assessed as tumor growth inhibition at 10 mg/kg, ip bid treated for 21 consecutive days relative to control. It counts as functional. The conditions noted are these: read-out: TGI.
The test system of data set [9] is HEL. The data set is described as follows: Antitumor activity against human HEL cells xenografted in BALB/C nude mouse assessed as tumor growth at 10 mg/kg, ip bid treated for 21 consecutive days relative to control. In kind it is functional.

The term Tmax denotes the time at which the peak concentration occurs. A word on the AUC(0-inf): it is total exposure, with the tail of the curve extrapolated. The low end stands for low exposure, the high end for high exposure. By half-life is commonly meant the time in which the quantity being followed falls by half. A low value points to rapid decline. By Cmax is commonly meant the highest concentration seen after dosing. The molecule `CS(=O)(=O)Nc1ccc(-c2ccnc(Nc3ccc(N4CCC(C(=O)Nc5ccc(/C=C/C(=O)NO)cc5)CC4)cc3)n2)cc1` had a clearance in the data set on Rattus norvegicus of 2250 mL/h/kg. Further, in data set [1], the Tmax came to 30 min. In data set [2], this molecule returned an AUC(0-inf) of 4470 ng·h/mL. Also, the half-life in data set [3] is 308 min. In addition, the survival at 10 mg/kg in the data set with HEL [4] is 37.5%. This molecule showed a Cmax in data set [5] of 1600 ng/mL.
As to `CS(=O)(=O)Nc1ccc(-c2ccnc(Nc3ccc(N4CCC(C(=O)NCCCCCCCC(=O)NO)CC4)cc3)n2)cc1`, in the data set on HEL [6], the Activity was determined as 25.56%.
As usually defined, the T/C is the ratio of treated to control. Consider `O=C(NO)c1ccc(-c2ccnc(Nc3ccc(N4CCOCC4)cc3)n2)cc1`, for which the Activity in the data set on HEL [7] stood at 48.68%. The inhibition in vivo at 10 mg/kg with HEL [8] amounted to 59.9%. Further, in the data set with HEL [9], the T/C was 41.1%.
